Publication PMC6154583, “Optimized 4,5-Diarylimidazoles as Potent/Selective Inhibitors of Protein Kinase CK1δ and Their Structural Relation to p38α MAPK” (Molecules : A Journal of Synthetic Chemistry and Natural …, 2017)

Legend:
Colo357 cells = assay: MTT viability assay; format: cell-based, human; conditions: Homo sapiens, COLO357, 48 h incubation, mean ± SD, n = 3
Procedure: (§1) The human pancreatic cancer cell lines Colo357 [61], Panc-1 [62], and MiaPaCa-2 [63] were grown in Dulbecco’s modified Eagle’s medium (DMEM). Panc89 [64] was grown in DMEM:RPMI-1640 medium in ratio 1:1. The human colon adenocarcinoma cell line HT-29 [65] was grown in McCoy’s 5A medium. All media were supplemented with 10% fetal calf serum (FCS), 100 units·mL^−1 penicillin, 100 µg∙mL^−1 streptomycin and 2 mM glutamine. All cells were grown at 37 °C in a humidified 5% carbon dioxide atmosphere.
(§2) In order to determine the cytotoxic effects of investigated inhibitors conventional MTT assay were used. 1 × 10^4 cells∙well^−1 were seeded in 96-well cell culture plates and cultivated for 24 h. Cell lines were exposed to increasing concentrations of the indicated inhibitor compounds, with untreated and DMSO-treated cells serving as control. After an incubation period of 48 h 10 µL of MTT solution (5 mg∙mL^−1 in PBS) were added and cells were incubated for 4 h. MTT-containing medium was carefully removed and 100 µL acidic isopropanol (0.04 N HCl in isopropanol) per well were added. For dissolution of formazan crystals plates were shaken for 30 min on an orbital shaker in the dark. Finally, dissolved crystals were measured spectrophotometrically at […]. All experiments were performed in triplicate with four technical replicates per assay. Results were normalized considering the mean optical density value of control wells as 100%. GraphPad Prism 6 (La Jolla, CA, USA) software was used to calculate EC50 values.

Panc89 cells = assay: MTT viability assay; format: cell-based, human; conditions: Homo sapiens, 48 h incubation, mean ± SD, n = 3
Procedure: as §1, §2

AKT3 aa106-479 = biological target: T1, AKT3 aa106-479 (Homo sapiens, UniProt Q9Y243); assay: ProQinase 33PanQinase selectivity profiling; format: biochemical; conditions: 100 nM, relative to control, read-out: Residual activity (%)
T1 construct: AKT3 aa106-479; purchased ProQinase GmbH (Freiburg, Germany)

AMPK-alpha1 aa1-550 = biological target: T2, AMPK-alpha1 aa1-550 (Homo sapiens, UniProt Q13131); assay: ProQinase 33PanQinase selectivity profiling; format: biochemical; conditions: 100 nM, relative to control, read-out: Residual activity (%)
T2 construct: AMPK-alpha1 aa1-550; purchased ProQinase GmbH (Freiburg, Germany)

ASK1 = ASK1 (Homo sapiens, UniProt Q99683); assay: ProQinase 33PanQinase selectivity profiling; format: biochemical; conditions: 100 nM, relative to control, read-out: Residual activity (%)
Aurora-B = Aurora-B (Homo sapiens, UniProt Q96GD4); assay: ProQinase 33PanQinase selectivity profiling; format: biochemical; conditions: 100 nM, relative to control, read-out: Residual activity (%)
BTK = BTK (Homo sapiens, UniProt Q06187); assay: ProQinase 33PanQinase selectivity profiling; format: biochemical; conditions: 100 nM, relative to control, read-out: Residual activity (%)
BUB1B = biological target: T3, BUB1B (Homo sapiens, UniProt O60566); assay: ProQinase 33PanQinase selectivity profiling; format: biochemical; conditions: 100 nM, relative to control, read-out: Residual activity (%)
T3 construct: purchased ProQinase GmbH

CDC42BPB = biological target: T4, CDC42BPB (Homo sapiens, UniProt Q9Y5S2); assay: ProQinase 33PanQinase selectivity profiling; format: biochemical; conditions: 100 nM, relative to control, read-out: Residual activity (%)
T4 construct: purchased ProQinase GmbH

CDK2/CycA2 = CDK2/CycA2 (Homo sapiens, UniProt P24941); assay: ProQinase 33PanQinase selectivity profiling; format: biochemical; conditions: 100 nM, relative to control, read-out: Residual activity (%)
CK1-gamma3 = CK1-gamma3 (Homo sapiens, UniProt Q9Y6M4); assay: ProQinase 33PanQinase selectivity profiling; format: biochemical; conditions: 100 nM, relative to control
CK2-alpha1 = CK2-alpha1 (Homo sapiens, UniProt P68400); assay: ProQinase 33PanQinase selectivity profiling; format: biochemical; conditions: 100 nM, relative to control, read-out: Residual activity (%)
CLK3 = biological target: T5, CLK3 (Homo sapiens, UniProt P49761); assay: ProQinase 33PanQinase selectivity profiling; format: biochemical; conditions: 100 nM, relative to control, read-out: Residual activity (%)
T5 construct: purchased ProQinase GmbH

CLK4 = CLK4 (Homo sapiens, UniProt Q9HAZ1); assay: ProQinase 33PanQinase selectivity profiling; format: biochemical; conditions: 100 nM, relative to control, read-out: Residual activity (%)
CSF1-R = biological target: T6, CSF1-R (Homo sapiens, UniProt P07333); assay: ProQinase 33PanQinase selectivity profiling; format: biochemical; conditions: 100 nM, relative to control, read-out: Residual activity (%)
T6 construct: purchased ProQinase GmbH

EPHA4 = biological target: T7, EPHA4 (Homo sapiens, UniProt P54764); assay: ProQinase 33PanQinase selectivity profiling; format: biochemical; conditions: 100 nM, relative to control, read-out: Residual activity (%)
T7 construct: purchased ProQinase GmbH

p38α MAPK = p38α MAPK (Homo sapiens, UniProt Q16539); assay: ProQinase 33PanQinase selectivity profiling; format: biochemical; conditions: 100 nM, relative to control, read-out: residual activity
JNK2 = JNK2 (Homo sapiens, UniProt P45984); assay: ProQinase 33PanQinase selectivity profiling; format: biochemical; conditions: 100 nM, relative to control, read-out: residual activity
JNK3 = JNK3 (Homo sapiens, UniProt P53779); assay: ProQinase 33PanQinase selectivity profiling; format: biochemical; conditions: 100 nM, relative to control, read-out: residual activity
RIPK2 = RIPK2 (Homo sapiens, UniProt O43353); assay: ProQinase 33PanQinase selectivity profiling; format: biochemical; conditions: 100 nM, relative to control, read-out: residual activity
Sequence of RIPK2 (O43353 whole entry): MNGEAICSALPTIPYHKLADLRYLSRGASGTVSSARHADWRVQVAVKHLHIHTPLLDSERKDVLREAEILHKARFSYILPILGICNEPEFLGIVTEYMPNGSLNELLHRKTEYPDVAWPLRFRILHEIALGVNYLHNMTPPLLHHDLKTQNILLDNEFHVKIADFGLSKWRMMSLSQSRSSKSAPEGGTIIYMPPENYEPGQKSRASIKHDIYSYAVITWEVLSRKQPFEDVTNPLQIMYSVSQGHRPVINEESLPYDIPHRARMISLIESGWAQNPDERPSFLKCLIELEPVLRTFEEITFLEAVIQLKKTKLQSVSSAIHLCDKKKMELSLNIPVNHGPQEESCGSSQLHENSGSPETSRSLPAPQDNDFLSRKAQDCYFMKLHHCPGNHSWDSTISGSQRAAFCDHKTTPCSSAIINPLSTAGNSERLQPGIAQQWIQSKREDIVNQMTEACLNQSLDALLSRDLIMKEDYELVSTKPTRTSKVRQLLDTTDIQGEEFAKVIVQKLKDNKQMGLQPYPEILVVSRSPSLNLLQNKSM

Sequence of CK1-gamma3 (Q9Y6M4 whole entry): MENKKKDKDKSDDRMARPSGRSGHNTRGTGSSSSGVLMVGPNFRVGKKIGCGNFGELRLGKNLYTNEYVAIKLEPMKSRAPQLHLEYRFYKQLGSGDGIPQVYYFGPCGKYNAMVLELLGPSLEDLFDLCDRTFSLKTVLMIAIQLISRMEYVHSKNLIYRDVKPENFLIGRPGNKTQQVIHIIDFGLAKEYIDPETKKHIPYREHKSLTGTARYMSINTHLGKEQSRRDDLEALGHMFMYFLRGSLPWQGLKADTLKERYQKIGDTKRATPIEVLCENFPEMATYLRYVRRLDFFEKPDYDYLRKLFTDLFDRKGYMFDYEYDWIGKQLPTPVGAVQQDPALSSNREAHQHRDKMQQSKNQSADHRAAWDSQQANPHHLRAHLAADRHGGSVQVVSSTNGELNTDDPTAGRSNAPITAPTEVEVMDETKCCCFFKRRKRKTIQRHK
T6 sequence (P07333 20-972): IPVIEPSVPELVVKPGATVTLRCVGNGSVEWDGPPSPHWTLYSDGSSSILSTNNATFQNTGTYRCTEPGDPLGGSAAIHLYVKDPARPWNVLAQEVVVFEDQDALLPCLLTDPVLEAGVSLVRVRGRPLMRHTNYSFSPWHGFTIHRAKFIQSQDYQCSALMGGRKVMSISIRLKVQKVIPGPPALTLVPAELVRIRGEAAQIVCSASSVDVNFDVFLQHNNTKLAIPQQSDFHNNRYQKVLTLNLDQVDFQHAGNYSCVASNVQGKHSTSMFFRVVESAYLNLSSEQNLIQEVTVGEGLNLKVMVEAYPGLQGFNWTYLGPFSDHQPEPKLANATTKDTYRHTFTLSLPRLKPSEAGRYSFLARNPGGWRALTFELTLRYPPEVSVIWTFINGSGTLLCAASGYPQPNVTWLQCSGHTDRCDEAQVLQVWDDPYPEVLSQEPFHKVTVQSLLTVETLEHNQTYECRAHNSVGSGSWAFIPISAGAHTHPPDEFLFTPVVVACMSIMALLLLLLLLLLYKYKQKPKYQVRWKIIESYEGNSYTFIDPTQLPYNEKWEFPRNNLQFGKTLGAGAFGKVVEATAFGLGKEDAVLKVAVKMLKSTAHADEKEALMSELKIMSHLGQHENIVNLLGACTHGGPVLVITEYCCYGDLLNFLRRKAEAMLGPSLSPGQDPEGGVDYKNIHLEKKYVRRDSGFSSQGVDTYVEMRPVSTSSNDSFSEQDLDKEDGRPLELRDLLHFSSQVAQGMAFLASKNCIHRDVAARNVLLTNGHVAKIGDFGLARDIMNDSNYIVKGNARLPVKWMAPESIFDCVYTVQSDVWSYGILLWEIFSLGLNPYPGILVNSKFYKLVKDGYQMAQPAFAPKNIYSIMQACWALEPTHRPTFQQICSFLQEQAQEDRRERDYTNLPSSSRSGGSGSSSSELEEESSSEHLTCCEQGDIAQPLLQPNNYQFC
T2 sequence (Q13131 10-559 limits assumed): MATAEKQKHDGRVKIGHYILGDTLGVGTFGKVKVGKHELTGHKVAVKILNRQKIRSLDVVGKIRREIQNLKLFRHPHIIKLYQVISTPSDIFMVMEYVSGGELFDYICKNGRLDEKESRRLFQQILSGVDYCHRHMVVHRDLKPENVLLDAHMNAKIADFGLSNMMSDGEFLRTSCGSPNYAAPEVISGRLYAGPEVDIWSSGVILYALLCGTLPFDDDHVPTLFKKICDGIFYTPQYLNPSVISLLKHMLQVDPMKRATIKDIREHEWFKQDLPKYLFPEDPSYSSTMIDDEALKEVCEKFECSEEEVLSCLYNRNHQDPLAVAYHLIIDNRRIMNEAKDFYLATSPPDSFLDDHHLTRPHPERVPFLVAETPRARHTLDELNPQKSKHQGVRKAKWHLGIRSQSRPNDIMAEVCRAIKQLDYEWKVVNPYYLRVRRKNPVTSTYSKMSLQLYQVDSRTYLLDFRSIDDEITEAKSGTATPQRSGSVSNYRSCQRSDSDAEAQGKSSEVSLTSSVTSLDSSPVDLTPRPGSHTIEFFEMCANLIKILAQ
Sequence of Aurora-B (Q96GD4 whole entry): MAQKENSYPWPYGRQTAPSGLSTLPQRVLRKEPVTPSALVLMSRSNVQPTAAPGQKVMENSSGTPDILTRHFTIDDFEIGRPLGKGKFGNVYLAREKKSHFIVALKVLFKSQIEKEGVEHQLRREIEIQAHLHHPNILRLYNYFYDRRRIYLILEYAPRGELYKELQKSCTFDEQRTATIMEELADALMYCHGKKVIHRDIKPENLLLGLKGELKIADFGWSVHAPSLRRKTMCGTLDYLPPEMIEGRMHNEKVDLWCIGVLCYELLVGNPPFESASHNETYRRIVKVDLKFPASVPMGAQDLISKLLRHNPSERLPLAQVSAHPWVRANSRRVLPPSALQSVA
Sequence of JNK2 (P45984 whole entry): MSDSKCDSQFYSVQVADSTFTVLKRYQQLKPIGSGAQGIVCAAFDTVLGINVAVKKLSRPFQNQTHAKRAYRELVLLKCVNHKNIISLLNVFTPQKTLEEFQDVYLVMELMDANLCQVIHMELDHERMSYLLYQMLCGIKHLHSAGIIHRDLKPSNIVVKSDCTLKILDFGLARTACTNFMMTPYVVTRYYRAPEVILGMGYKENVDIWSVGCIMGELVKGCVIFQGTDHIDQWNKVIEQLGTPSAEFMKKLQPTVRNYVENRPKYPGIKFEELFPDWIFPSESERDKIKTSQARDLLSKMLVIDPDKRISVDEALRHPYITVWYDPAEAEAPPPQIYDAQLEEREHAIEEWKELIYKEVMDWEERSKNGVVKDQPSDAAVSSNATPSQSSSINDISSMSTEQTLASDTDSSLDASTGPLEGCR
T4 sequence (Q9Y5S2 whole entry): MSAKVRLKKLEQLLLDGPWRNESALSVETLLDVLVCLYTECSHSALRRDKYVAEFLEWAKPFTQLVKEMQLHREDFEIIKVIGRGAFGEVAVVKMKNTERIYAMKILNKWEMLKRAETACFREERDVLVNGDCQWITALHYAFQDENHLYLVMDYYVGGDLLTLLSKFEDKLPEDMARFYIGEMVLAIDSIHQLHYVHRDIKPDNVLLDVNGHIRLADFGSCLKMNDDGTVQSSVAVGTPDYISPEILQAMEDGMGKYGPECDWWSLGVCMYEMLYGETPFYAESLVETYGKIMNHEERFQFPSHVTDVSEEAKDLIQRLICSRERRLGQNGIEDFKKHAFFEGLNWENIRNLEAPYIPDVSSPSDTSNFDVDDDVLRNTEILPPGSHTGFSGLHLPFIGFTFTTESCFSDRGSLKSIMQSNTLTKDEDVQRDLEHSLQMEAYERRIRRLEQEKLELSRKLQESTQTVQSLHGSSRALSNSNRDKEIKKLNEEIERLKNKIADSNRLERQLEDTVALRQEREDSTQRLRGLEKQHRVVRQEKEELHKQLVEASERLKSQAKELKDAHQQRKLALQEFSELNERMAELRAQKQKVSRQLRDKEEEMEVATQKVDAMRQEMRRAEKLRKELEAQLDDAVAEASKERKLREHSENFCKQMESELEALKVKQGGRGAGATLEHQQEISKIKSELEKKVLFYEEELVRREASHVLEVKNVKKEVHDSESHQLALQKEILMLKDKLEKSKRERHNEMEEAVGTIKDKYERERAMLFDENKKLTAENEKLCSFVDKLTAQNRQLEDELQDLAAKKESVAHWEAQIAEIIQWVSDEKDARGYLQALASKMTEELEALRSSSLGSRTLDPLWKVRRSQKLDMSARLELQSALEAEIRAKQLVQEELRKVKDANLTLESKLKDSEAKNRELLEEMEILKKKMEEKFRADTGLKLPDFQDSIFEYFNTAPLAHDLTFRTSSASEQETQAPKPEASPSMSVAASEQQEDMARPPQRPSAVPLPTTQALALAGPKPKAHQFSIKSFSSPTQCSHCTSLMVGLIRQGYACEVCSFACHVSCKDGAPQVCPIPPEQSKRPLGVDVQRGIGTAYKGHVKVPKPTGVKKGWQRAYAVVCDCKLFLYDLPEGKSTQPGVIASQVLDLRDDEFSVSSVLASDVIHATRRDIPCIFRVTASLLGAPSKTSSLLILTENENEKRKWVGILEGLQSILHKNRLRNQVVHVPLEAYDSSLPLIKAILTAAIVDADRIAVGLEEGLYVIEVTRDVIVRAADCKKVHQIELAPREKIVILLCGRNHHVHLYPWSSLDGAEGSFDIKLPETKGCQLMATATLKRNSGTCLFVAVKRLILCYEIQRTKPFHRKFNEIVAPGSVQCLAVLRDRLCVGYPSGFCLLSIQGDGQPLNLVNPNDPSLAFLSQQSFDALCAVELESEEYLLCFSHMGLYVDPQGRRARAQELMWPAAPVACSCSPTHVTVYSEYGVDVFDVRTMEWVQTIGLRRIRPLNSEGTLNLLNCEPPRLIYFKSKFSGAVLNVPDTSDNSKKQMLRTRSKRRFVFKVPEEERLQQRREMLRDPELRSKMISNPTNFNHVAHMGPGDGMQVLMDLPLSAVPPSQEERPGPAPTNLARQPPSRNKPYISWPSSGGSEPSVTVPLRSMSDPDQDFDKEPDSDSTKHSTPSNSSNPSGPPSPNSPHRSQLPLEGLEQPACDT

**Q.** What does the source list for `COc1ccc(OC)c(CCC(=O)Nc2cc(-c3nc(SC)[nH]c3-c3ccc(F)cc3)ccn2)c1` [11b, 3-(2,5-Dimethoxyphenyl)-N-(4-(5-(4-fluorophenyl)-2-(methylthio)-1H-imidazol-4-yl)-pyridin-2-yl)-propanamide]?
**A.** EC50 (Colo357 cells): 3.5 ± 0.3 µM; EC50 (Panc89 cells): 1.5 ± 0.4 µM; remaining activity at 0.1 µM (AKT3 aa106-479): 83%; remaining activity at 0.1 µM (AMPK-alpha1 aa1-550): 96%; remaining activity at 0.1 µM (ASK1): 93%; remaining activity at 0.1 µM (Aurora-B): 92%; remaining activity at 0.1 µM (BTK): 105%; remaining activity at 0.1 µM (BUB1B): 102%; remaining activity at 0.1 µM (CDC42BPB): 88%; remaining activity at 0.1 µM (CDK2/CycA2): 87%; Residual activity (%) (CK1-gamma3): unaffected; remaining activity at 0.1 µM (CK1-gamma3; read-out: Residual activity (%)): 73%; remaining activity at 0.1 µM (CK2-alpha1): 97%; remaining activity at 0.1 µM (CLK3): 98%; remaining activity at 0.1 µM (CLK4): 95%; remaining activity at 0.1 µM (CSF1-R): 104%; remaining activity at 0.1 µM (EPHA4): 96%; remaining activity at 0.1 µM (p38α MAPK): 22%; remaining activity at 0.1 µM (JNK2): 21%; remaining activity at 0.1 µM (JNK3): 37%; remaining activity at 0.1 µM (RIPK2): 45%
